Laboratory results published in ChEMBL document CHEMBL3301361, “Experimental in vitro DMPK and physicochemical data on a set of publicly disclosed compounds”.
Converted amounts (≈) assume the structure as drawn.

Experiments:
[1] = physchem; conditions: octan-1-ol/water
[2] = physchem; conditions: pH 7.4 buffer

| Compound | logD ([1]; pH 7.4, LogD7.4) | solubility thermodynamic [2] | logD ([1]; pH 7.4) |
| --- | --- | --- | --- |
| Nc1nccc(-c2c[nH]c3ccccc23)n1 | 1.68 | 575 µM (≈ 121 µg/mL) |  |
| CCN(CC)C(=O)c1ccc2[nH]c(-c3cc(C)cc(C)c3)c(CCNCCCCc3ccncc3)c2c1 | 3.3 | 871 µM (≈ 433 µg/mL) |  |
| CC1CN(C(=O)c2ccccc2)c2ccccc2NC1=O (configuration not stated) | 1.73 | 1200 µM (≈ 337 µg/mL) |  |
| COc1cc(-c2cccc3c(=O)cc(N4CCOCC4)oc23)ccc1NC(=O)CN1CCOCC1 | 2.3 | 13.2 µM (≈ 6.33 µg/mL) |  |
| COc1ccc(CNCc2ccc(-c3cc(C(N)=O)c(NC(N)=O)s3)cc2)cc1 | 2.55 | 11.5 µM (≈ 4.72 µg/mL) |  |
| O=S(=O)(Nc1ccc(S(=O)(=O)Nc2nccs2)cc1)c1ccc2c(c1)OCCO2 | 1.97 | 0.7 µM (≈ 0.317 µg/mL) |  |
| Cc1ccc(Oc2ccnc(Nc3ccc(S(N)(=O)=O)cc3)c2)c(C)n1 | 2.47 | 4.2 µM (≈ 1.56 µg/mL) |  |
| Cn1c2ccccc2c2cc(NC(=O)CCc3ccncc3)ccc21 | 3.8 | 11 µM (≈ 3.62 µg/mL) |  |
| Cc1ccc(NC(=O)C2CC2)cc1-n1cnc2ccc(N3CCN(C)CC3)cc2c1=O | 2.17 | 1510 µM (≈ 632 µg/mL) |  |
| CC(=O)N1CCN(c2ccc(Nc3nccc(-c4cnc(C)n4C(C)C)n3)cc2)CC1 | 2.39 | 148 µM (≈ 62 µg/mL) |  |
| CC(=O)Nc1cc(CN2C(=O)N(c3ccc(SC(F)(F)F)cc3)C(=O)C2(C)C)ccn1 | 2.93 | 13.2 µM (≈ 5.97 µg/mL) |  |
| COc1cc(N2CCN(C(C)=O)CC2)ccc1Nc1ncc(Cl)c(-c2cnc3cc(N4CCCC4)ccn23)n1 | 3.5 | 1.4 µM (≈ 0.766 µg/mL) |  |
| COc1ccc(Cc2nccc3cc(OC)c(OC)cc23)cc1OC [PAPAVERINE] |  | 38 µM (≈ 12.9 µg/mL) | 2.81 |
| Oc1cccc2nc(-c3ccccc3)cc(O)c12 | 3.37 | 5 µM (≈ 1.19 µg/mL) |  |
| CN1CCC(COc2cc(OC3CCOCC3)c3c(Nc4c(Cl)ccc5c4OCO5)ncnc3c2)CC1 | 2.59 | 1380 µM (≈ 727 µg/mL) |  |
| NCC(O)(c1ccc(Cl)cc1)c1ccc(Cl)cc1 | 2.69 | 759 µM (≈ 214 µg/mL) |  |
| Oc1cc(-c2ccccc2)nc2ccnn12 |  | 813 µM (≈ 172 µg/mL) | 1.3 |
| CCCSc1ncccc1C(=O)N(C)C1CCCCC1 | 3.36 | 955 µM (≈ 279 µg/mL) |  |
| Cc1sc(N2CCN(C)CC2)nc1CCOc1ccc(C[C@H](Nc2ccccc2C(=O)c2ccccc2)C(=O)O)cc1 | 2.58 | 97.7 µM (≈ 57.1 µg/mL) |  |
| Cc1cc(C)cc(-c2[nH]c3ccc(C(C)(C)C(=O)N4C5CCC4CC5)cc3c2CCNCCCCc2ccncc2)c1 | 4.3 | 35.5 µM (≈ 20 µg/mL) |  |
| CCCSc1nc2ccc(NC(=O)CCNC(N)=O)cc2s1 | 2.9 | 93.3 µM (≈ 31.6 µg/mL) |  |
| COc1ccc(NC(=O)c2nnc(Nc3ccccc3F)o2)cn1 | 3.2 | 3.3 µM (≈ 1.09 µg/mL) |  |
| COc1ccc(C(=O)CS(=O)(=O)c2ccccc2)cc1 | 1.96 | 53.7 µM (≈ 15.6 µg/mL) |  |
| COc1ccc(Cn2cc3c(=O)n(C)c(=O)n(CC(C)C)c3c2)cc1 | 3.52 | 17 µM (≈ 5.8 µg/mL) |  |
| CC(C)(C)c1cc2nc3c(c(O)n2n1)CN(Cc1ccccc1)C3=O | 1.9 | 25.1 µM (≈ 8.44 µg/mL) |  |
| CN(CCOc1ccc(C[C@H](Nc2ccccc2C(=O)c2ccccc2)C(=O)O)cc1)c1ccccn1 | 2.15 | 219 µM (≈ 108 µg/mL) |  |

| Compound | logD ([1]; pH 7.4, LogD7.4) | solubility thermodynamic [2] | logD ([1]; pH 7.4) |
| --- | --- | --- | --- |
| CCCN(CCO)CCCOc1ccc2c(Nc3cc(CC(=O)Nc4cccc(F)c4F)[nH]n3)ncnc2c1 | 2.19 | 5.8 µM (≈ 3.13 µg/mL) |  |
| O=C(CO)N1CCC(c2[nH]nc(-c3ccc(Cl)cc3)c2-c2ccncn2)CC1 [SD-0006] | 1.85 | 60.3 µM (≈ 24 µg/mL) |  |
| C[C@H](NC1=NC(=O)[C@](C)(C(F)(F)F)S1)c1ccccc1F | 3.1 | 87.1 µM (≈ 27.9 µg/mL) |  |
| CC1C(=O)Nc2ccccc2N1C(=O)c1ccccc1 (configuration not stated) | 2.11 | 40.7 µM (≈ 10.8 µg/mL) |  |
| CCN(CC)c1ncnc2c1ncn2Cc1c(Cl)cccc1Cl |  | 2.3 µM (≈ 0.806 µg/mL) | 1.25 |
| Clc1n[nH]c2cccc(Nc3ccnc(Nc4cc(N5CCOCC5)cc(N5CCOCC5)c4)n3)c12 | 2.78 | 5.1 µM (≈ 2.59 µg/mL) |  |
| Clc1ccc2c(c1Nc1ccnc(Nc3cc(N4CCOCC4)cc(N4CCOCC4)c3)n1)OCO2 | 3.25 | 30.9 µM (≈ 15.8 µg/mL) |  |
| COc1ccc(-c2csc(N(CCCN3CCOCC3)C(=O)c3ccco3)n2)cc1 | 3.34 | 1.1 µM (≈ 0.47 µg/mL) |  |
| CC(C)N1CCO[C@@H](CN2CCN(C(=O)Nc3ccc(Cl)c(Cl)c3)CC2)C1 | 2.77 | 1120 µM (≈ 466 µg/mL) |  |
| O=C1NC(=O)C(Cc2cccc(Oc3ccccc3)c2)S1 (configuration not stated) | 2.84 | 339 µM (≈ 101 µg/mL) |  |
| CS(=O)(=O)c1ccc([C@@H](CC2CCCC2)C(=O)Nc2cnc([C@H](O)CO)cn2)cc1Cl | 2.58 | 468 µM (≈ 219 µg/mL) |  |
| Cc1cc2c(F)c(Oc3ncnn4cc(OC[C@@H](C)OC(=O)[C@H](C)N)c(C)c34)ccc2[nH]1 [BRIVANIB ALANINATE] | 3.19 | 37.2 µM (≈ 16.4 µg/mL) |  |
| CS(=O)(=O)C1(c2cc(N3CCOCC3)nc(-c3ccccc3)n2)CC1 | 2.6 | 8.9 µM (≈ 3.2 µg/mL) |  |
| COc1ccc(C(=O)C2CCN(C(=O)c3ccco3)CC2)cc1 | 2.42 | 380 µM (≈ 119 µg/mL) |  |
| FC(F)c1nc2ccccc2n1-c1nc(N2CCOCC2)nc(N2CCOCC2)n1 [ZSTK-474] | 3.04 | 0.7 µM (≈ 0.292 µg/mL) |  |
| CN(C)C/C=C/C(=O)Nc1cc2c(Nc3ccc(F)c(Cl)c3)ncnc2cc1O[C@H]1CCOC1 [AFATINIB] | 3.7 | 93.3 µM (≈ 45.3 µg/mL) |  |
| O=C(N1CCN(c2ccncc2Cl)CC1)N1CCN(S(=O)(=O)c2ccc(C(F)(F)F)cc2)CC1 | 3.54 | 3.9 µM (≈ 2.02 µg/mL) |  |
| O=C1CN(C(=O)c2ccco2)c2ccccc2N1 | 1.21 | 269 µM (≈ 65.2 µg/mL) |  |
| Cc1ncc(-c2nc(Nc3ccc(C(=O)N4CCN(C)CC4)cc3)ncc2F)n1C(C)C | 2.49 | 57.5 µM (≈ 25.2 µg/mL) |  |
| O=C(Nc1ccc(N2CCOCC2)nc1)c1nnc(Nc2ccc(F)cc2)o1 | 3 | 2.6 µM (≈ 0.999 µg/mL) |  |
| CCOC(=O)N1CCN(C(=O)[C@H](Cc2cccc(C(=N)N)c2)NS(=O)(=O)c2c(C(C)C)cc(C(C)C)cc2C(C)C)CC1 | 1.67 | 692 µM (≈ 425 µg/mL) |  |
| Cc1oc(-c2ccccc2)nc1CCOc1ccc(C[C@H](Nc2ccccc2C(=O)c2ccccc2)C(=O)O)cc1 [FARGLITAZAR] | 3.5 | 35.5 µM (≈ 19.4 µg/mL) |  |
| CC(=O)[C@H]1CC[C@H]2[C@@H]3CCC4=CC(=O)CC[C@]4(C)[C@H]3CC[C@]12C [PROGESTERONE] |  | 37.2 µM (≈ 11.7 µg/mL) | 3.94 |
| COc1cc(C(=O)NS(=O)(=O)c2ccccc2)ccc1Cn1ncc2ccc(NC(=O)CC3CCCC3)cc21 | 1.6 | 251 µM (≈ 137 µg/mL) |  |
| Clc1cccc(Cl)c1-c1nnc2cccc(Cl)n12 | 2.66 | 115 µM (≈ 34.3 µg/mL) |  |
| CNC(=O)c1cc(-c2ccccc2)sc1NC(N)=O | 3.19 | 12 µM (≈ 3.3 µg/mL) |  |

| Compound | logD ([1]; pH 7.4, LogD7.4) | solubility thermodynamic [2] | logD ([1]; pH 7.4) |
| --- | --- | --- | --- |
| Cc1ccc(Oc2ccc(Nc3ncnc4cccc(O[C@H](C)C(=O)N5CCOCC5)c34)cc2C)cn1 | 4.14 | 7.6 µM (≈ 3.8 µg/mL) |  |
| O=C(N[C@@H](Cc1ccc(OCCNc2nc3ccccc3[nH]2)cc1)C(=O)O)c1c(Cl)cccc1Cl | 0.6 | 324 µM (≈ 166 µg/mL) |  |
| O=C(NC1CCCCC1)c1cccnc1Sc1ccccc1 | 3.01 | 22.9 µM (≈ 7.15 µg/mL) |  |
| CS(=O)(=O)c1ccc2[nH]c3c(c2c1)CN(C(=O)[C@@H]1CCCC[C@H]1C(=O)NC1(C#N)CC1)CC3 | 1.5 | 190 µM (≈ 89.3 µg/mL) |  |
| CCOC(=O)c1ccccc1-c1csc(NS(=O)(=O)c2ccc(Cl)cc2)n1 | 2.43 | 1.4 µM (≈ 0.592 µg/mL) |  |
| Cc1ncc(C(N)=O)nc1-c1ccc([C@H]2CC[C@H](C(=O)O)CC2)cc1 | 0.22 | 1230 µM (≈ 418 µg/mL) |  |
| CCn1c2ccccc2c2cc(NC(C)=O)ccc21 |  | 5.6 µM (≈ 1.41 µg/mL) | 3.5 |
| CC(C)Oc1cc(Oc2ccc(S(C)(=O)=O)cc2)cc(C(=O)Nc2nccs2)c1 | 3.61 | 5.2 µM (≈ 2.25 µg/mL) |  |
| CCN(CC)C(=O)Cc1csc(NS(=O)(=O)c2cccc(Cl)c2C)n1 | 1.67 | 40.7 µM (≈ 16.4 µg/mL) |  |
| CCCc1c(O)c(O)c(C(=O)O)c2cc(Cc3ccccc3)c(C)cc12 | 2.6 | 204 µM (≈ 71.6 µg/mL) |  |
| Nc1ncc(-c2cnn(C3CCN(C(=O)CO)CC3)c2)cc1-c1nc2ccccc2o1 | 3.2 | 2 µM (≈ 0.837 µg/mL) |  |
| CS(=O)(=O)c1cccc(Nc2nccc(Nc3c(Cl)ccc4ccoc34)n2)c1 | 3.7 | 11.5 µM (≈ 4.77 µg/mL) |  |
| CCc1ccc(NC(=O)c2ccc3cc(C(=N)N)ccc3c2)cc1 | 1.1 | 8.5 µM (≈ 2.7 µg/mL) |  |
| NC(=O)Nc1sc(-c2ccc(CNC3CCCC3)cc2)cc1C(N)=O | 1.22 | 479 µM (≈ 172 µg/mL) |  |
| O=C(NCCCCc1ccccc1)c1ccccc1 | 3.8 | 52.5 µM (≈ 13.3 µg/mL) |  |
| CC(=O)c1noc(C)c1C(=O)Nc1nccs1 | 1.94 | 46.8 µM (≈ 11.8 µg/mL) |  |
| O=C(O)C[C@@H]1c2ccccc2C[C@H]1NC(=O)c1cc2sc(Cl)c(Cl)c2[nH]1 | 2.53 | 1510 µM (≈ 620 µg/mL) |  |
| O=C(NCc1ccncc1)c1ccc(Oc2ccc(C#CC3(O)CN4CCC3CC4)cc2)cc1 (configuration not stated) |  | 269 µM (≈ 122 µg/mL) | 2.48 |
| Cc1nc(S(C)(=O)=O)ccc1Nc1ncnc(OC2CCN(C(=O)OC(C)C)CC2)c1C | 2.8 | 12.3 µM (≈ 5.7 µg/mL) |  |
| C[C@H](CN(C)C(=O)CO)Oc1cccc2ncnc(Nc3ccc(OCc4ccccn4)c(Cl)c3)c12 | 3.22 | 12.6 µM (≈ 6.4 µg/mL) |  |
| C[C@@H](Oc1cccc2ncnc(Nc3ccc4c(cnn4Cc4cscn4)c3)c12)C(=O)N1CCOCC1 | 2.81 | 151 µM (≈ 78.1 µg/mL) |  |
| CCOC(=O)Nc1ccc2c(c1)N(C(=O)CCN1CCOCC1)c1ccccc1S2 [MORICIZINE] | 3.1 | 83.2 µM (≈ 35.6 µg/mL) |  |
| Nc1ncnc2c1C(=O)N(c1ccc([C@H]3CC[C@H](CC(=O)O)CC3)cc1)CCO2 [PF-04620110] | -0.5 | 759 µM (≈ 301 µg/mL) |  |
| CC(C)COc1cc(OC(C)C)cc(C(=O)Nc2ccc(C(=O)O)cn2)c1 | 1.6 | 190 µM (≈ 70.9 µg/mL) |  |
